Assay results reported in PubChem BioAssay (NCI).
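Briefly, cells in 96-well plates were exposed to five compound concentrations for 48 h, and endpoints were estimated by linear interpolation. TGI is the concentration that stops growth completely.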 Where a SMILES comes first, the peptide text is derived from it. The star is where a group is joined. Cbz = O=C(OCc1ccccc1)*

Tests used:
Test in all cases: NCI-60 cell line screen, 48 h
IGROV1 ovarian = tested on: IGROV1 ovarian
NCI-H23 lung = tested on: NCI-H23 lung
PC-3 prostate = tested on: PC-3 prostate
SK-MEL-5 melanoma = tested on: SK-MEL-5 melanoma
BT-549 breast = tested on: BT-549 breast
HCC-2998 colon = tested on: HCC-2998 colon
MDA-MB-435 = tested on: MDA-MB-435
NCI/ADR-RES ovarian = tested on: NCI/ADR-RES ovarian
SW-620 colon = tested on: SW-620 colon
COLO 205 colon = tested on: COLO 205 colon
SNB-19 CNS = tested on: SNB-19 CNS
HT29 colon = tested on: HT29 colon
LOX IMVI melanoma = tested on: LOX IMVI melanoma
NCI-H226 lung = tested on: NCI-H226 lung
NCI-H460 lung = tested on: NCI-H460 lung
OVCAR-8 ovarian = tested on: OVCAR-8 ovarian
MOLT-4 leukemia = tested on: MOLT-4 leukemia
SNB-75 CNS = tested on: SNB-75 CNS
A498 renal = tested on: A498 renal

Structure (SMILES) | TGI (IGROV1 ovarian) | TGI (NCI-H23 lung) | TGI (PC-3 prostate) | TGI (SK-MEL-5 melanoma) | TGI (BT-549 breast) | TGI (HCC-2998 colon) | TGI (MDA-MB-435) | TGI (NCI/ADR-RES ovarian) | TGI (SW-620 colon) | TGI (COLO 205 colon) | TGI (SNB-19 CNS) | TGI (HT29 colon) | TGI (LOX IMVI melanoma) | TGI (NCI-H226 lung) | TGI (NCI-H460 lung) | TGI (OVCAR-8 ovarian) | TGI (MOLT-4 leukemia) | TGI (SNB-75 CNS) | TGI (A498 renal)
Clc1ccc(C2C3COc4ccccc4C3=NN2c2ccccc2)cc1 (stereo unspecified) | > 100 µM | > 100 µM | > 100 µM | > 100 µM | > 100 µM | > 100 µM | > 100 µM | > 100 µM | > 32.7 µM | > 100 µM | > 93.5 µM | > 100 µM | > 48.7 µM | > 100 µM | > 100 µM | > 100 µM | 47 µM | 98.9 µM | > 100 µM
CN1C2CCC1CC(=CCOC(c1ccc(F)cc1)c1ccc(F)cc1)C2 | 30.1 µM | 32 µM | 33.1 µM | 23.2 µM | 30.1 µM | 13.3 µM | 25.7 µM | 40.1 µM | > 100 µM | 30.5 µM | 37.8 µM | 19.9 µM | 31.5 µM | 37.4 µM | 35.3 µM | 32 µM | 42.3 µM | 27.1 µM | 28.7 µM
Cc1ccnc2[nH]c3ccccc3c(=O)c12 | 49.5 µM | 90.6 µM | 81.6 µM | 33.2 µM | 86.7 µM | 65 µM | 41.8 µM | > 100 µM | > 100 µM | 59.1 µM | > 100 µM | 36 µM | > 100 µM | > 100 µM | 97.5 µM | > 100 µM | 55.1 µM | 32.1 µM | > 100 µM
CN=C(N=Nc1c(O)[nH]c2ccccc12)SCC(=O)c1ccc(Br)cc1 | > 100 µM | 51.1 µM | 29.4 µM | > 93.2 µM | > 100 µM | 13.2 µM | > 42.3 µM | 27 µM | > 34.1 µM | > 100 µM | > 100 µM | > 43.5 µM | > 47.7 µM | 48.4 µM | > 38.3 µM | > 40.7 µM | > 100 µM | 27.5 µM | 37.2 µM
CN(C)CCCC12CCCCC1=Nc1ccccc12 (stereo unspecified) | > 100 µM | > 100 µM | > 100 µM | > 100 µM | > 100 µM | > 100 µM | > 100 µM | > 100 µM | > 100 µM | > 100 µM | > 100 µM | > 100 µM | > 100 µM | > 100 µM | > 100 µM | > 100 µM | > 100 µM | > 100 µM | > 100 µM
CC1CCC(=O)C(C(=O)CC2CC(=O)N(C)C(=O)C2)C1 (stereo unspecified) | > 100 µM | > 100 µM | > 100 µM | > 100 µM | > 100 µM | > 100 µM | > 100 µM | > 100 µM | > 100 µM | > 100 µM | > 100 µM | > 100 µM | > 100 µM | > 100 µM | > 100 µM | > 100 µM | > 100 µM | > 100 µM | > 100 µM
CCOC(=O)CC[C@H](NC(=O)[C@H](N)Cc1ccc(N(CCCl)CCCl)cc1)C(=O)OCC | > 65.7 µM | 12.9 µM | > 75.1 µM | 23.5 µM | > 65.3 µM | > 48.6 µM | > 53.1 µM | 30.9 µM | > 58.8 µM | 52.9 µM | > 96 µM | > 78 µM | 41.6 µM | > 72 µM | 17.3 µM | > 52.8 µM | 6.85 µM | 35.3 µM | > 100 µM
CN1CCN(C(=S)N2CCN(C)CC2)CC1 | > 100 µM | > 100 µM | > 100 µM | > 100 µM | > 100 µM | > 100 µM | > 100 µM | > 100 µM | > 100 µM | 9.45 µM | > 100 µM | 5.86 µM | > 100 µM | > 100 µM | > 21.8 µM | > 100 µM | > 100 µM | > 26.3 µM | > 100 µM
Nc1nc(SC/C=C/c2ccccc2)c2[nH]cnc2n1 | > 100 µM | > 100 µM | > 100 µM | > 100 µM | > 100 µM | > 100 µM | > 100 µM | > 100 µM | > 100 µM | > 100 µM | > 100 µM | > 100 µM | > 100 µM | > 100 µM | > 100 µM | > 100 µM | > 100 µM | > 100 µM | > 100 µM
O=C1CCCC1CN1CCCC1 (stereo unspecified) | 26.6 µM | 31.3 µM | 35.2 µM | 31.9 µM | 3.09 µM | > 60.4 µM | 26.3 µM | 37.9 µM | 11.3 µM | 8.74 µM | > 100 µM | > 59.7 µM | 24.4 µM | > 100 µM | > 58.4 µM | 35.4 µM | 1.07 µM | 31 µM | 45.1 µM
CN(C)CCCN1CCC2(CCC(C(C)(C)C)CC2)CC1 | 9.03 µM | 21.7 µM | 10.8 µM | 3.02 µM | 24.5 µM | 0.417 µM | 1.19 µM | 19.5 µM | 7.87 µM | 3.04 µM | 11.8 µM | 1.7 µM | 3.22 µM | 19.9 µM | 2.36 µM | 16.5 µM | 5.74 µM | 4.11 µM | 4.6 µM
CC(=O)c1[nH]c(NCc2ccccc2)c(C(=S)Nc2ccccc2)c1N | 14.1 µM | > 100 µM | > 100 µM | 34.9 µM | 64.7 µM | 40.6 µM | 33.9 µM | > 100 µM | > 100 µM | > 100 µM | > 100 µM | > 100 µM | 32.8 µM | 40.2 µM | 56.5 µM | 39.2 µM | > 100 µM | > 100 µM | 53.7 µM
CC1OC(OC2C(O)COC(OC3C(C)OC(OC4C(OC(=O)[C@]56CCC(C)(C)C[C@@H]5C5=CCC7[C@@]8(C)C[C@H](O)[C@H](OC9OC(CO)C(O)C(O)C9O)[C@@](C)(CO)[C@@H]8CC[C@@]7(C)[C@]5(C)CC6)OCC(O)C4O)C(O)C3OC3OCC(O)(CO)C3O)C2O)C(O)C(O)C1O (stereo partly specified) | 31.1 µM | 27.1 µM | 28.6 µM | 29.8 µM | 38 µM | 14.7 µM | 47.3 µM | 41.7 µM | 31.6 µM | 6.37 µM | 29 µM | 37.4 µM | 43.2 µM | 43 µM | 42.2 µM | 40.4 µM | 46.5 µM | 39.6 µM | 13.6 µM
C[C@H](CCC(=O)O)[C@H]1CC[C@H]2[C@@H]3CC[C@@H]4C[C@H](O)CC[C@]4(C)[C@H]3C[C@H](O)[C@]12C | 86.7 µM | > 100 µM | > 100 µM | > 100 µM | > 100 µM | > 100 µM | > 100 µM | > 100 µM | > 100 µM | 61.8 µM | > 100 µM | > 100 µM | > 100 µM | > 100 µM | > 100 µM | > 100 µM | 62.3 µM | > 100 µM | > 100 µM
O=C(O)CCC(NC(=O)OCc1ccccc1)C(=O)NC(Cc1cnc[nH]1)C(=O)O (stereo not drawn) (Cbz-Glu-His-OH; configuration not given here) | > 100 µM | > 100 µM | > 100 µM | > 100 µM | > 100 µM | > 100 µM | > 100 µM | > 100 µM | > 100 µM | > 100 µM | > 100 µM | > 100 µM | > 100 µM | > 100 µM | > 100 µM | > 100 µM | > 100 µM | > 100 µM | > 100 µM
CCOC1OC(=O)c2cc3ccc4c(c3c(-c3ccc5c(c3)OCO5)c21)OCO4 (stereo unspecified) | > 100 µM | > 55.3 µM | > 100 µM | 27 µM | 97.2 µM | 20.3 µM | > 28 µM | > 74.6 µM | > 100 µM | 5.16 µM | > 100 µM | > 100 µM | > 100 µM | > 74 µM | 28.1 µM | > 100 µM | > 100 µM | 15.5 µM | > 100 µM
COC(=O)c1ccccc1/C=C1\Cc2ccc(C)c(C)c2C1=O | > 100 µM | > 100 µM | > 100 µM | > 100 µM | > 100 µM | > 100 µM | > 100 µM | > 100 µM | > 100 µM | > 100 µM | > 100 µM | > 100 µM | > 100 µM | > 100 µM | > 100 µM | > 100 µM | > 100 µM | > 100 µM | > 100 µM
Fc1cc(-c2cc(-c3ccccc3)no2)c(Cl)cc1Cl | > 50.8 µM | > 34.2 µM | > 50 µM | > 33.5 µM | 39.8 µM | > 72 µM | > 35.9 µM | > 100 µM | > 63.3 µM | > 16.2 µM | > 62.5 µM | > 46.7 µM | > 21.2 µM | > 23.3 µM | > 43.1 µM | > 40.8 µM | > 47.8 µM | > 54.4 µM | > 54 µM
O=C(Oc1ccccn1)c1cc2cc(CCl)ccc2oc1=O | > 100 µM | 62.7 µM | 38.5 µM | > 100 µM | 49.7 µM | > 100 µM | > 100 µM | 75.5 µM | > 100 µM | > 100 µM | 71.2 µM | > 100 µM | > 100 µM | > 100 µM | > 100 µM | > 100 µM | > 100 µM | 62.1 µM | > 100 µM
